# Laboratory results published in US10399974B2, “N2-phenyl-pyrido[3,4-D]pyrimidine-2, 8-diamine derivatives and their use as Mps1 inhibitors” (Cancer Research Technology Limited, priority 2014, dated 2019).
# Target: full length MPS1 (Homo sapiens (Human), UniProt P33981)
# Experiment: Measurement of Inhibition of MPS1 Kinase
# Type: biochemical
# Settings: not given
# Description: Measurement of Inhibition of MPS1 Kinase
# (5 μM), ATP (10 μM), either DMSO (1% v/v) or the test compound (in the range 0.25 nM-100 μM in 1% DMSO) and assay buffer (50 mM HEPES (pH 7.0), 0.02% NaN3, 0.01% BSA, 0.1 mM Orthovandate, […], 1 μM DTT, Roche protease inhibitor). The reaction was carried out for 60 min at room temperature and stopped by the addition of buffer (10 μl) containing 20 mM EDTA, 0.05% (v/v) Brij-35, in 0.1M HEPES-buffered saline (Free acid, Sigma, UK). The plate was read on a Caliper EZ reader II (Caliper Life Sciences).
# The reader provides a Software package (‘Reviewer’) which converts the peak heights into % conversion by measuring both product and substrate peak and also allows selection of control well which represent 0% and 100% inhibition, respectively. The % inhibition of the compounds is calculated relative to the means of selected control wells. IC50s are determined by testing the compounds at a range of concentrations from 0.25 nM-100 μM. The % inhibitions at each concentration are then fitted to a 4 parameter logistic fit: y=(a+((b−a)/(1+((c/x^d)))) where a=asym min, b=asym max, c=IC50 and d=hill coefficient
# full length MPS1, sequence (P33981 whole entry): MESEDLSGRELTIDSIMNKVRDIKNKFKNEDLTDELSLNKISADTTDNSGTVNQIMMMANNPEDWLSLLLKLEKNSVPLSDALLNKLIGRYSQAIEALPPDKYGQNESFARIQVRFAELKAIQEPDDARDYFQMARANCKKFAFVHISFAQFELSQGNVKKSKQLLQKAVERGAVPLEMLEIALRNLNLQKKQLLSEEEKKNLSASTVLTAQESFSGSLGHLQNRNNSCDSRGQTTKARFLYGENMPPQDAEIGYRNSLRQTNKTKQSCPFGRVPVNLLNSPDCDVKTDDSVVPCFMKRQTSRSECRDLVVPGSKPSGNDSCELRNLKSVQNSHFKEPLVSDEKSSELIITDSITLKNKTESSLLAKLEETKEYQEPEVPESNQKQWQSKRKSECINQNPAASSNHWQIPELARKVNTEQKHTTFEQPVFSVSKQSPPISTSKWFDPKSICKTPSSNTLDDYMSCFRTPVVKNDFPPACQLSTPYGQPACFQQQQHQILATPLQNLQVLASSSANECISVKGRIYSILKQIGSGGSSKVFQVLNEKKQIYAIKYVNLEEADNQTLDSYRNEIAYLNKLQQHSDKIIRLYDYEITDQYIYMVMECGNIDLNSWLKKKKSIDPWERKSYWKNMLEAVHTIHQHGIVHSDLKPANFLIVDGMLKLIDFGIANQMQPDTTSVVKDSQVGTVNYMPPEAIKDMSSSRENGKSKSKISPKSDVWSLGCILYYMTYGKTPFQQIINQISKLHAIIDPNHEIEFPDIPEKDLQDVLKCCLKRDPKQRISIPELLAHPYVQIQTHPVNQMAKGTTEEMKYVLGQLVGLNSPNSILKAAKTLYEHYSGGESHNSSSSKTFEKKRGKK
row,Compound,IC50
1,"CCOc1cc(-c2nncn2C)ccc1Nc1ncc2cc(C)nc(N3CC(C)(C)C3)c2n1 [Example 29, 8-(3,3-dimethylazetidin-1-yl)-N-(2-ethoxy-4-(4-methyl-4H-1,2,4-triazol-3-yl)phenyl)-6-methylpyrido[3,4-d]pyrimidin-2-amine]",2 nM

# Same assay, conditions: full length MPS1 12.5 nM or 3 nM, H236 peptide 5 μM, ATP 10 μM, 60 min at room temperature, Caliper EZ reader II; read-out: MPS1 IC50
row,Compound,IC50
1,"CCOc1cc(-c2nncn2CC)ccc1Nc1ncc2cc(C)nc(N3CC4(CCOCC4)C3)c2n1 [Example 24, N-(2-ethoxy-4-(4-ethyl-4H-1,2,4-triazol-3-yl)phenyl)-6-methyl-8-(7-oxa-2-azaspiro[3.5]nonan-2-yl)pyrido[3,4-d]pyrimidin-2-amine]",2 nM
2,"CCOc1cc(-c2nncn2CC)ccc1Nc1ncc2cc(C)nc(N3CC(C)(C)C3)c2n1 [Example 25, 8-(3,3-dimethylazetidin-1-yl)-N-(2-ethoxy-4-(4-ethyl-4H-1,2,4-triazol-3-yl)phenyl)-6-methylpyrido[3,4-d]pyrimidin-2-amine]",6 nM
3,"CCOc1cc(-c2nncn2CC)ccc1Nc1ncc2cc(C)nc(NCC(C)(C)C)c2n1 [Example 26, N2-(2-ethoxy-4-(4-ethyl-4H-1,2,4-triazol-3-yl)phenyl)-6-methyl-N8-neopentylpyrido[3,4-d]pyrimidine-2,8-diamine]",6 nM
4,"CCOc1cc(-c2nncn2C)ccc1Nc1ncc2cc(C)nc(N3CCC4(CCOC4)C3)c2n1 (centres unmarked) [Example 27, N-(2-ethoxy-4-(4-methyl-4H-1,2,4-triazol-3-yl)phenyl)-6-methyl-8-(2-oxa-7-azaspiro[4.4]nonan-7-yl)pyrido[3,4-d]pyrimidin-2-amine]",4 nM
5,"CCOc1cc(-c2nncn2C)ccc1Nc1ncc2cc(C)nc(N3CCC(C)(C#N)CC3)c2n1 [Example 28, 1-(2-((2-ethoxy-4-(4-methyl-4H-1,2,4-triazol-3-yl)phenyl)amino)-6-methylpyrido[3,4-d]pyrimidin-8-yl)-4-methylpiperidine-4-carbonitrile]",2 nM
6,"CCOc1cc(-c2nncn2C)ccc1Nc1ncc2cc(C)nc(N3CC(C)(OC)C3)c2n1 [Example 30, N-(2-ethoxy-4-(4-methyl-4H-1,2,4-triazol-3-yl)phenyl)-8-(3-methoxy-3-methylazetidin-1-yl)-6-methylpyrido[3,4-d]pyrimidin-2-amine]",2 nM
7,"CCOc1cc(-c2nncn2C)ccc1Nc1ncc2cc(C)nc(NCC3(O)CC3)c2n1 [Example 31, 1-(((2-((2-ethoxy-4-(4-methyl-4H-1,2,4-triazol-3-yl)phenyl)amino)-6-methylpyrido[3,4-d]pyrimidin-8-yl)amino)methyl)cyclopropanol]",8 nM
8,"COc1cc(-c2cnc(C)n2C)ccc1Nc1ncc2cc(C)nc(N3CCC(C#N)CC3)c2n1 [Example 34, 1-(2-((4-(1,2-dimethyl-1H-imidazol-5-yl)-2-methoxyphenyl)amino)-6-methylpyrido[3,4-d]pyrimidin-8-yl)piperidine-4-carbonitrile]",3 nM
9,"CCOc1cc(-c2nncn2C)ccc1Nc1ncc2cc(C)nc(N3CC4(CCO4)C3)c2n1 [Example 36, N-(2-ethoxy-4-(4-methyl-4H-1,2,4-triazol-3-yl)phenyl)-6-methyl-8-(1-oxa-6-azaspiro[3.3]heptan-6-yl)pyrido[3,4-d]pyrimidin-2-amine]",2 nM
10,"CCOc1cc(-c2nncn2C)ccc1Nc1ncc2cc(C)nc(N3CCC(C)(O)C3)c2n1 (centres unmarked) [Example 37, 1-(2-((2-ethoxy-4-(4-methyl-4H-1,2,4-triazol-3-yl)phenyl)amino)-6-methylpyrido[3,4-d]pyrimidin-8-yl)-3-methylpyrrolidin-3-ol]",3 nM
11,"CCOc1cc(-c2nncn2C)ccc1Nc1ncc2cc(C)nc(N3CCC(OC)C3)c2n1 (centres unmarked) [Example 39, N-(2-ethoxy-4-(4-methyl-4H-1,2,4-triazol-3-yl)phenyl)-8-(3-methoxypyrrolidin-1-yl)-6-methylpyrido[3,4-d]pyrimidin-2-amine]",3 nM
12,"CCOc1cc(-c2nncn2C)ccc1Nc1ncc2cc(C)nc(N3CC(C(F)(F)F)C3)c2n1 [Example 40, N-(2-ethoxy-4-(4-methyl-4H-1,2,4-triazol-3-yl)phenyl)-6-methyl-8-(3-(trifluoromethyl)azetidin-1-yl)pyrido[3,4-d]pyrimidin-2-amine]",5 nM
13,"CCOc1cc(-c2nncn2C)ccc1Nc1ncc2cc(C)nc(N3CCC3(C)C)c2n1 [Example 42, 8-(2,2-dimethylazetidin-1-yl)-N-(2-ethoxy-4-(4-methyl-4H-1,2,4-triazol-3-yl)phenyl)-6-methylpyrido[3,4-d]pyrimidin-2-amine]",10 nM
14,"CCOc1cc(-c2nncn2C)ccc1Nc1ncc2cc(C)nc(N3CCC(OC)CC3)c2n1 [Example 46, N-(2-ethoxy-4-(4-methyl-4H-1,2,4-triazol-3-yl)phenyl)-8-(4-methoxypiperidin-1-yl)-6-methylpyrido[3,4-d]pyrimidin-2-amine]",3 nM
15,"CCOc1cc(-c2nncn2C)ccc1Nc1ncc2cc(C)nc(N3CC4CC4C3)c2n1 (centres unmarked) [Example 50, 8-(3-azabicyclo[3.1.0]hexan-3-yl)-N-(2-ethoxy-4-(4-methyl-4H-1,2,4-triazol-3-yl)phenyl)-6-methylpyrido[3,4-d]pyrimidin-2-amine]",2 nM
16,"CCOc1cc(-c2nncn2C)ccc1Nc1ncc2cc(C)nc(N3CC(N(C)C)C3)c2n1 [Example 51, 8-(3-(dimethylamino)azetidin-1-yl)-N-(2-ethoxy-4-(4-methyl-4H-1,2,4-triazol-3-yl)phenyl)-6-methylpyrido[3,4-d]pyrimidin-2-amine]",6 nM
17,"CCOc1cc(-c2nncn2C)ccc1Nc1ncc2cc(C)nc(N3CCC(O)CC3)c2n1 [Example 52, 1-(2-(2-ethoxy-4-(4-methyl-4H-1,2,4-triazol-3-yl)phenylamino)-6-methylpyrido[3,4-d]pyrimidin-8-yl)piperidin-4-ol]",2 nM
18,"CCOc1cc(-c2nncn2C)ccc1Nc1ncc2cc(C)nc(N[C@H](C)C(C)(C)C)c2n1 [Example 53, (R)-N8-(3,3-dimethylbutan-2-yl)-N2-(2-ethoxy-4-(4-methyl-4H-1,2,4-triazol-3-yl)phenyl)-6-methylpyrido[3,4-d]pyrimidine-2,8-diamine]",5 nM
19,"CCOc1cc(-c2nncn2C)ccc1Nc1ncc2cc(C)nc(N[C@@H](C)C(C)(C)C)c2n1 [Example 54, (S)-N8-(3,3-dimethylbutan-2-yl)-N2-(2-ethoxy-4-(4-methyl-4H-1,2,4-triazol-3-yl)phenyl)-6-methylpyrido[3,4-d]pyrimidine-2,8-diamine]",4 nM
20,"CCOc1cc(-c2nncn2C)ccc1Nc1ncc2cc(C)nc(N3CC4(CCC4)C3)c2n1 [Example 55, N-(2-ethoxy-4-(4-methyl-4H-1,2,4-triazol-3-yl)phenyl)-6-methyl-8-(2-azaspiro[3.3]heptan-2-yl)pyrido[3,4-d]pyrimidin-2-amine]",4 nM
21,"CCOc1cc(-c2nncn2C)ccc1Nc1ncc2cc(C)nc(N3CCCC3)c2n1 [Example 56, N-(2-ethoxy-4-(4-methyl-4H-1,2,4-triazol-3-yl)phenyl)-6-methyl-8-(pyrrolidin-1-yl)pyrido[3,4-d]pyrimidin-2-amine]",6 nM
22,"CCOc1cc(-c2nncn2C)ccc1Nc1ncc2cc(C)nc(NCC3COC3)c2n1 [Example 57, N2-(2-ethoxy-4-(4-methyl-4H-1,2,4-triazol-3-yl)phenyl)-6-methyl-N8-(oxetan-3-ylmethyl)pyrido[3,4-d]pyrimidine-2,8-diamine]",3 nM
